Data as given in patent publication US5017577A, “Methods for treating viral infection” (Burroughs Wellcome Co., priority 1989, dated 1991).

Target: T1, adenosine (purine) receptors (Cavia porcellus, UniProt P47745)
T1 construct: Ilea were removed from sacrificed guinea pigs; from tissue; host or cells: guinea pig ileum
T1 sequence (P47745 1-326): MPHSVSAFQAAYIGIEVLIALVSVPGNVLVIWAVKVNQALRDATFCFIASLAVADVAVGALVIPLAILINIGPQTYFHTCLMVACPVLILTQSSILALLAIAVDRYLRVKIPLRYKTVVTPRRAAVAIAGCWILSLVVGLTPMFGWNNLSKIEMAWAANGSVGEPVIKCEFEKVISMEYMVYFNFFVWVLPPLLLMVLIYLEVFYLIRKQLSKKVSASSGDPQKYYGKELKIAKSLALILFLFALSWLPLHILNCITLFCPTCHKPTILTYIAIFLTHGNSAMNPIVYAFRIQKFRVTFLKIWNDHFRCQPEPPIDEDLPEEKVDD
Experiment: Guinea pig ileum twitch test: purine receptor antagonism against 2-chloroadenosine (Schild regression)
Conditions: agonist 2-chloroadenosine
Method: Accordingly, a representative number of compounds of the present invention were tested for their ability to antagonise the purine receptors using the guinea pig ileum test system.
Ilea were removed from sacrificed guinea pigs and placed in organ baths containing oxygenated Krebs-Henseleit buffer. After equilibration, the ilea were stimulated to contract (twitch contraction) using an electrical field-stimulus of 0.1 Hz, 0.05 ms duration and maximal voltage. Under these conditions, the twitch contraction results from the release of acetylcholine.
Concentration response curves to the purine agonist, 2-chloroadenosine, were determined first in the absence and then in the presnce of multiple concentrations of the compounds of the invention. One concentration of each compound was used per tissue. Quantification of purine receptor antagonism was accomplished using the Schild regression technique, i.e. plots of log (dose-ratio-l) vs log compound concentration, and the pA2 determined by regression of the data points to the x-intercept, where log (dose-ratio-l) is zero.

Row | pA2 guinea pig ileum (slope): slope of Schild regression | SMILES
1 | 0.9 | CCCn1c(=O)c2nc(-c3ccc(/C=C/C(=O)O)cc3)[nH]c2n(CCC)c1=O [Example 6, (E)-4-(1,2,3,6-tetrahydro-2,6-dioxo-1,3-dipropyl-9H-purin-8-yl)cinnamic acid]
2 | 1.0 | CCCn1c(=O)n(C)c(=O)c2nc(-c3ccc(/C=C/C(=O)O)cc3)[nH]c21 [Example 11, (E)-4-(1,2,3,6-tetrahydro-1-methyl-2,6-dioxo-3-propyl-9H-purin-8-yl)cinnamic acid]
3 | 1.0 | CC(C)Cn1c(=O)c2nc(-c3ccc(/C=C/C(=O)O)cc3)[nH]c2n(CC(C)C)c1=O [Example 19, (E)-4-(1,2,3,6-tetrahydro-1,3-diisobutyl-2,6-dioxo-9H-purin-8-yl) cinnamic acid]

Further lines, the molecule ahead of its results:

Row | SMILES | pA2 guinea pig ileum (slope): slope of Schild regression
4 | CCCCn1c(=O)c2nc(-c3ccc(/C=C/C(=O)O)cc3)[nH]c2n(CCCC)c1=O [Example 14, (E)-4-(1,3-dibutyl-1,2,3,6-tetrahydro-2,6-dioxo-9H-purin-8-yl)cinnamic acid] | 1.0
5 | O=C(O)/C=C/c1ccc(-c2nc3c(=O)n(Cc4ccccc4)c(=O)n(Cc4ccccc4)c3[nH]2)cc1 [Example 15, (E)-4-(1,3-dibenzyl-1,2,3,6-tetrahydro-2,6-dioxo-9H-purin-8 yl) cinnamic acid] | 0.9
6 | Cn1c(=O)c2nc(-c3ccc(/C=C/C(=O)O)cc3)[nH]c2n(Cc2ccccc2)c1=O [Example 18, (E)-4-(3-benzyl-1,2,3,6-tetrahydro-1-methyl-2,6-dioxo-9H-purin-8-yl) cinnamic acid] | 0.9

Test system: AIDV
Experiment: Anti-retroviral activity against AIDV
Design: species or system AIDV (HTLV III)
Conditions: in words

Row | SMILES | anti-retroviral activity, especially against AIDV
7 | O=C(O)/C=C/c1ccc(-c2nc3c(=O)n(Cc4ccccc4)c(=O)n(Cc4ccccc4)c3[nH]2)cc1 [Example 15, (E)-4-(1,3-dibenzyl-1,2,3,6-tetrahydro-2,6-dioxo-9H-purin-8 yl) cinnamic acid] | especially potent activity against AIDV
